The target of test [1] is T1, Matrilysin (Homo sapiens, UniProt P09237).
T1 sequence (P09237 whole entry): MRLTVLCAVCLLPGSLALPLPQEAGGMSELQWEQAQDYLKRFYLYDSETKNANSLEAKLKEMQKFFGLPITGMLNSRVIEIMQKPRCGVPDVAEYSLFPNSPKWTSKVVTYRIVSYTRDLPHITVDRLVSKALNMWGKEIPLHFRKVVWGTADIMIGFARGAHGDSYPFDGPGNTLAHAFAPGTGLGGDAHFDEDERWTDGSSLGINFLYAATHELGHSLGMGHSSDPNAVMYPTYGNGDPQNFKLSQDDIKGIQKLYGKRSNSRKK
Description: In vitro inhibitory activity against matrilysin (matrix metalloprotease-7).

The target of another test is T2, Interstitial collagenase (Homo sapiens, UniProt P03956).
T2 sequence (P03956 whole entry): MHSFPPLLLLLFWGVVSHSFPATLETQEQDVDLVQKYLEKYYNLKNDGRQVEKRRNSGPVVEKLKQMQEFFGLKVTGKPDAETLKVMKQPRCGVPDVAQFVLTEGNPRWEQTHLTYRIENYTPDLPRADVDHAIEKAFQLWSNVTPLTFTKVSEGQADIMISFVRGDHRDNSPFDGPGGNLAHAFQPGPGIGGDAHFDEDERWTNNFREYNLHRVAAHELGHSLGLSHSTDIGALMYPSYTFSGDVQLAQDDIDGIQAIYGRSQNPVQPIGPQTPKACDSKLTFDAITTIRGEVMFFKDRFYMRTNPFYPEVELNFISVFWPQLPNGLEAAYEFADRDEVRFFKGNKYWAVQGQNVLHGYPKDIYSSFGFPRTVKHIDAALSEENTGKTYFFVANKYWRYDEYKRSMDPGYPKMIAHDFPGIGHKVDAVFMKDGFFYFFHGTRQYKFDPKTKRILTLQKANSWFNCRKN

Another test deals with Collagenase 3 (Homo sapiens, UniProt P45452).
Test [2] has as its target 72 kDa type IV collagenase (Homo sapiens, UniProt P08253).
Description: In vitro inhibitory activity against gelatinase-A (matrix metalloprotease-2).
For test [3], the target named is Matrix metalloproteinase-9 (Homo sapiens, UniProt P14780).
Sequence of Matrix metalloproteinase-9 (P14780 whole entry): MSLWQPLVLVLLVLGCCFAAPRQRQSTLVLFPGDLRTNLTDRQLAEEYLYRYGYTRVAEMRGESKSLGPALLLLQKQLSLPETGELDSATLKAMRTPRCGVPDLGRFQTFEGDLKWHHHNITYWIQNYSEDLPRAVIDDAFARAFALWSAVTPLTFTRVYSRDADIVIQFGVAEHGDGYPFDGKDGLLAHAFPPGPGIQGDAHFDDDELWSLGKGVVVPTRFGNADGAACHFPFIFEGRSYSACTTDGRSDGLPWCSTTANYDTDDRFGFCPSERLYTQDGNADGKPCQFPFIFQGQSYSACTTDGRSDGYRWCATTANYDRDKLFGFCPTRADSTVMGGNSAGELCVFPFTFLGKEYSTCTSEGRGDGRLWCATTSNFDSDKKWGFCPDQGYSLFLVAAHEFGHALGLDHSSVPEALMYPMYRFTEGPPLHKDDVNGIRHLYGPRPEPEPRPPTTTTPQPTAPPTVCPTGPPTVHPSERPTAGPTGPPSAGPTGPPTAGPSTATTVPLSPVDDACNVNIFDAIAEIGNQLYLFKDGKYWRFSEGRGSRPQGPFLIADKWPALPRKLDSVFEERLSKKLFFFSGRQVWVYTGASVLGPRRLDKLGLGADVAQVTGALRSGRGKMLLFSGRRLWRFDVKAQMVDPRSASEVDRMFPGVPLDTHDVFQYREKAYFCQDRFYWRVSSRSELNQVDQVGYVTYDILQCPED
Description: Inhibition of gelatinase-B (Matrix metalloprotease-9)
Another test deals with Neutrophil collagenase (Homo sapiens, UniProt P22894).
Sequence of Neutrophil collagenase (P22894 whole entry): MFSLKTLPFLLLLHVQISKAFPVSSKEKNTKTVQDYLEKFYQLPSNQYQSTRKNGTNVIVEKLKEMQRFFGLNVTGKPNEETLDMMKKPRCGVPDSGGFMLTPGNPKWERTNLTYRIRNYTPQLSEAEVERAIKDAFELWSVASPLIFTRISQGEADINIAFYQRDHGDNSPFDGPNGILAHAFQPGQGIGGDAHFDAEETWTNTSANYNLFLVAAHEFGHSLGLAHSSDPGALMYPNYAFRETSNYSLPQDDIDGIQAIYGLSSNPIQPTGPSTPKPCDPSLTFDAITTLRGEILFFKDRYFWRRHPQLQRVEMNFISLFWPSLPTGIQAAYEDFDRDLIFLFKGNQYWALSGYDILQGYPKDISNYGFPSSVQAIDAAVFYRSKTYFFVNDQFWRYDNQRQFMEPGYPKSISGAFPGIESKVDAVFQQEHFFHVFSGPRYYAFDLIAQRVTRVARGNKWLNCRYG
The target in test [4] is T1, Matrilysin. This is another data set of the same source.
Description: Inhibition of matrilysin (Matrix metalloprotease-7)

pIC50, pKi: −log10 of the molar value. Where only a bound is given, the exact number is not on record here.

Sequence of 72 kDa type IV collagenase (P08253 whole entry): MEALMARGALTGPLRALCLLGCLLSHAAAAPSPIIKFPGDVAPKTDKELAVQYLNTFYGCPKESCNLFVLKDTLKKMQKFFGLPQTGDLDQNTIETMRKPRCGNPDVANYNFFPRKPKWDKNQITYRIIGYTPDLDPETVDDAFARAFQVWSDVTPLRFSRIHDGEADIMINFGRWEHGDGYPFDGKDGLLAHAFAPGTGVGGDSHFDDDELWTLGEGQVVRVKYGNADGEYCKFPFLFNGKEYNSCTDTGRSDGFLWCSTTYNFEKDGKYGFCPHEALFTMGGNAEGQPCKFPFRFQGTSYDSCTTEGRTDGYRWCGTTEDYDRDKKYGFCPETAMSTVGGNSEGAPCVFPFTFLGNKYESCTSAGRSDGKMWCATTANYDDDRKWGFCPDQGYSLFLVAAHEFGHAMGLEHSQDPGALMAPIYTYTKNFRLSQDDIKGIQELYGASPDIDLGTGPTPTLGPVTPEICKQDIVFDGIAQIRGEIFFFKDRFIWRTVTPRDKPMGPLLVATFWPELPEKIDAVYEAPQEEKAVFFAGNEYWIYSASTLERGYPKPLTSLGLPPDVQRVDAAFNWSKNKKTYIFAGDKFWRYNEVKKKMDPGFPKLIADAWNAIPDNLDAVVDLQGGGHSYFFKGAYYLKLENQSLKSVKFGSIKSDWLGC
Description for Collagenase 3: In vitro inhibitory activity against collagenase-3 (matrix metalloprotease-13).
Description for Interstitial collagenase: In vitro inhibitory activity against truncated collagenase-1 (matrix metalloprotease-1).
Description for Neutrophil collagenase: Inhibition of neutrophil collagenase (Matrix metalloprotease-8)

Broadly, the pIC50 is the negative decadic logarithm of the IC50, by convention in mol/L. Higher therefore signals a small IC50. For the compound `COc1ccc(S(=O)(=O)N2CCNCC2C(=O)NO)cc1` (stereo unspecified), the pIC50 is 5.62 on Matrilysin [1], 6.76 on Interstitial collagenase and 8.77 at Collagenase 3.
With `COc1ccc(S(=O)(=O)N2CCCC2C(=O)NO)cc1` (stereo unspecified), the negative logarithm of the IC50 (pIC50) on Interstitial collagenase was 6.53.
For `CCCCOc1ccc(S(=O)(=O)N2CCCSC(C)(C)[C@@H]2C(=O)NO)cc1`, the pIC50 at Interstitial collagenase is 7.74; in test [2] it was 9.00; against Collagenase 3, 8.64.
Take `Cc1cc(Br)ccc1S(=O)(=O)N1CCCSC(C)(C)[C@@H]1C(=O)NO`: the pIC50 was 6.45 against Matrilysin [1], 9.30 at Interstitial collagenase, 7.62 in test [2] and 8.04 at Collagenase 3.
On the same counts, the results for `CC1(C)SCCCN(S(=O)(=O)c2ccc(Oc3ccncc3)cc2)[C@H]1C(=O)NO` are 6.98, 8.24, more than 9.40 and more than 9.40.
For the compound `COc1ccc(S(=O)(=O)N2CCCCC(C)(C)[C@@H]2C(=O)NO)cc1`, the pIC50 in test [3] is 9.30; at Neutrophil collagenase, 8.72; against Matrilysin [1], 7.74; on Interstitial collagenase it was 8.62; in test [2], 8.85.
For `CC1(C)SCCCN(S(=O)(=O)c2ccc(Br)cc2)[C@H]1C(=O)NO`, the pIC50 against Matrilysin [1] was 7.77; on Interstitial collagenase it was 9.15; in test [2] it was 8.17; on Collagenase 3, 8.89.
For `COc1ccc(S(=O)(=O)N2CCCSCC2C(=O)NO)cc1` (stereo unspecified), the values for the pIC50 at Matrilysin [1], on Interstitial collagenase and against Collagenase 3 were 5.96, 7.19 and 8.72, respectively.
As for `CC1(C)SCCCN(S(=O)(=O)c2ccc(Oc3ccccc3)cc2)[C@H]1C(=O)NO`, the pIC50 against Matrilysin [1] was 7.80; against Interstitial collagenase, 8.64; against Collagenase 3, more than 9.40.
For the compound `COc1ccc(S(=O)(=O)N2CCCCC2C(=O)NO)cc1` (stereo unspecified), the pIC50 against Matrilysin [1] is 6.50; against Collagenase 3 it was 9.30.
As for `CCCc1ccc(S(=O)(=O)N2CCCSC(C)(C)[C@@H]2C(=O)NO)cc1`, the negative-log IC50 (pIC50) against Matrilysin [1] was 6.20; against Interstitial collagenase it was 7.66; in test [2], 7.46; at Collagenase 3 it was 8.12.
For the compound `COc1ccc(S(=O)(=O)N2CCCCCC2C(=O)NO)cc1` (stereo unspecified), the pIC50 is 6.05 against Matrilysin [1], 7.31 on Interstitial collagenase and 8.74 against Collagenase 3.
For the compound `COc1ccc(S(=O)(=O)N2CCCSC(C)(C)[C@@H]2C(=O)NO)cc1`, the pIC50 is 8.72 in test [3]; 8.85 against Neutrophil collagenase; 7.52 at Matrilysin [1]; 9.10 on Interstitial collagenase; 8.57 in test [2]; 9.05 at Collagenase 3.
`COc1ccc(S(=O)(=O)N2CCSC(C)(C)[C@@H]2C(=O)NO)cc1`: the pIC50 is 9.05 in test [3]; 7.64 on Matrilysin [1]; 9.40 on Interstitial collagenase; 8.85 in test [2]; 9.00 at Collagenase 3.
Consider `COc1ccc(S(=O)(=O)N2CCCSC[C@@]2(C)C(=O)NO)cc1`, for which the pIC50 on Matrilysin [1] is 4.75; on Interstitial collagenase, 6.66; in test [2] it was 8.38; at Collagenase 3, 8.40.
Take `COc1ccc(S(=O)(=O)N2[C@@H](C(=O)NO)C(C)(C)SCC[C@H]2c2ccccc2)cc1`: the pIC50 was 7.27 against Matrilysin [1] and 6.63 against Interstitial collagenase.
The corresponding values for `COc1ccc(S(=O)(=O)N2[C@@H](c3ccccc3)CCSC(C)(C)[C@@H]2C(=O)NO)cc1` are 6.96 and 6.57.
On to `CC1(C)[C@H](C(=O)NO)N(S(=O)(=O)c2ccc(Br)cc2)CCCS1(=O)=O`, for which the pIC50 against Matrilysin [1] was 7.10; against Interstitial collagenase, 8.92; in test [2], 7.70; on Collagenase 3, 8.57.
For the compound `COCOC1CSC(C)(C)[C@H](C(=O)NO)N(S(=O)(=O)c2ccc(OC)cc2)C1` (stereo partly specified), the pIC50 against Matrilysin [1] was 7.42; in test [2], 8.74; against Collagenase 3, 8.85.
Take `COc1ccc(S(=O)(=O)N2C[C@@H](O)CS(=O)(=O)C(C)(C)[C@@H]2C(=O)NO)cc1`: the pIC50 on Interstitial collagenase is 8.72; in test [2], 8.28; at Collagenase 3, 8.89.
As to `COc1ccc(S(=O)(=O)N2CCOCCSC(C)(C)[C@@H]2C(=O)NO)cc1`, the pIC50 against Matrilysin [1] is more than 7.00; at Interstitial collagenase, more than 9.00; in test [2] it was 8.46; against Collagenase 3, 9.70.
`COc1ccc(S(=O)(=O)N2CCCS(=O)(=O)C(C)(C)[C@@H]2C(=O)NO)cc1`: the pIC50 in test [3] was 8.44; on Neutrophil collagenase, 8.62; against Matrilysin [1], 7.39; in test [2], 8.11; against Collagenase 3, 8.68.
In the case of `COc1ccc(S(=O)(=O)N2CCS(=O)(=O)C(C)(C)[C@@H]2C(=O)NO)cc1`, the negative logarithm of the IC50 (pIC50) on Interstitial collagenase is 7.89; in test [2], 7.85; at Collagenase 3 it was 8.37.
With `CCCCCc1ccc(S(=O)(=O)N2CCCSC(C)(C)[C@@H]2C(=O)NO)cc1`, the negative logarithm of the IC50 (pIC50) at Matrilysin [1] is 6.48; at Interstitial collagenase, 7.21; on Collagenase 3, 8.68.
At Interstitial collagenase, `COc1ccc(S(=O)(=O)N2CSCC2C(=O)NO)cc1` (stereo unspecified) had a pIC50 of 6.20.
As to `COc1ccc(S(=O)(=O)N2CCS(=O)(=O)CC2C(=O)NO)cc1` (stereo unspecified), the pIC50 is 4.89 against Matrilysin [1], 6.16 against Interstitial collagenase and 7.74 against Collagenase 3.
With `CC1(C)SCCCN(S(=O)(=O)c2ccc(-c3ccccn3)s2)[C@H]1C(=O)NO`, the pIC50 at Matrilysin [1] was 6.77; on Interstitial collagenase it was 9.00; in test [2] it was 9.00; at Collagenase 3, more than 9.70.
For the compound `CC1(C)SCCCN(S(=O)(=O)c2ccc(-c3ccc(F)cc3)cc2)[C@H]1C(=O)NO`, the pIC50 was more than 7.00 at Matrilysin [1], 8.54 on Interstitial collagenase, 8.89 in test [2] and more than 9.00 on Collagenase 3.
The corresponding values for `COCCOc1ccc(S(=O)(=O)N2CCCSC(C)(C)[C@@H]2C(=O)NO)cc1` are 6.29, 7.38, 7.94 and 8.25.
In the case of `COc1ccc(S(=O)(=O)N2CCSCC2C(=O)NO)cc1` (stereo unspecified), the negative logarithm of the IC50 (pIC50) on Matrilysin [1] was 5.68; against Interstitial collagenase it was 7.21; against Collagenase 3 it was 9.00.
As to `COc1ccc(S(=O)(=O)N2CCOCC2C(=O)NO)cc1` (stereo unspecified), the pIC50 at Interstitial collagenase was 7.31; against Collagenase 3, 9.00.
Consider `COc1ccc(S(=O)(=O)N2CCOCCS(=O)(=O)C(C)(C)[C@@H]2C(=O)NO)cc1`, for which the pIC50 against Matrilysin [1] is 6.74; against Interstitial collagenase, 8.72; against Collagenase 3 it was 8.48.
For the compound `CCCCOc1ccc(S(=O)(=O)N2CCCS(=O)(=O)C(C)(C)[C@@H]2C(=O)NO)cc1`, the pIC50 on Matrilysin [1] is 7.57; against Interstitial collagenase, 7.72; in test [2] it was 8.92; at Collagenase 3 it was 9.40.
On to `COc1ccc(S(=O)(=O)N2CCCCCSC(C)(C)[C@@H]2C(=O)NO)cc1`, for which the pIC50 in test [3] was 8.43; on Neutrophil collagenase, 9.22; on Matrilysin [1], 7.52; against Interstitial collagenase, 8.52; in test [2] it was 8.62; at Collagenase 3 it was 9.00.
On to `COc1ccc(S(=O)(=O)N2CCCSC(C)(C)C2C(=O)NO)cc1` (single isomer, unassigned), for which the pIC50 in test [3] is 5.86; against Neutrophil collagenase it was 6.06; against Matrilysin [1], less than 5.00; against Interstitial collagenase, 5.11; in test [2], 5.54; at Collagenase 3, 5.63.
As usually defined, the pKi is −log10 of the Ki, conventionally taken in molar units. Low values mean a large Ki, high ones a small Ki. Turning to `CC1(C)SCCN(S(=O)(=O)c2ccc(Oc3ccncc3)cc2)[C@H]1C(=O)NO` [PRINOMASTAT], on Matrilysin [4], the pKi was 7.27. The pIC50 on Neutrophil collagenase is more than 9.40; at Matrilysin [1], 7.04.
